Molecules are shown by their SMILES.

The text below walks through data of US11266617B2, “Beta-hydroxybutyrate encapsulated PLGA nanoparticle compositions” (Massachusetts Institute of Technology, priority 2018, dated 2022).

One experiment concerns Hes1-GFP organoids. Description: Hes1-GFP organoid reporter assay (GFP by flow cytometry). It counts as cell-based, mouse. Conditions: GSI 10 uM, βOHB 50 uM, JNJ-26481585 0.2 nM; compared to control. Here is the method: FIGS. 5A-5G show βOHB-mediated HDAC inhibition enhances NOTCH signaling. FIG. 5A, Violin plots of genes related to FIG. 12A: Notch receptor Notch1, Class I HDAC genes: HDAC1/2/3 and Notch target Hes1, based on a previously published scRNA-Seq data (Haber et al., 2017). FIG. 5B, Representative flow cytometry plots (top) and quantification of GFP expression (bottom) Hes1-GFP+ primary organoids exposed to γ-secretase inhibitor (GSI, 10 uM), βOHB (50 uM) and HDAC inhibitor (JNJ-26481585, 0.2 nM), compared to control condition. n=6 samples per treatment from n=3 mice. FIG. 5C, Organoid-forming assay for intestinal crypts isolated from WT and Hmgcs2-KO mice, with combinations of HDAC inhibitor JNJ-26481585 (JNJ) or βOHB treatments or Notch receptor inhibitor (GSI, gamma secretase inhibitor). Quantification and representative images: day-5-to-7 organoids. n=4 mice. Scale bar: 500 μm. Arrows indicate organoids and asterisks indicate aborted crypts. FIG. 5D, Schematic (top) of the mouse model including the timeline of tamoxifen (TAM) and HDACi (JNJ) injection and tissue collection. Nuclear NICD, a measure of Notch activation, by immunofluorescence (IF). […] FIG. 5E, Quantification of OLFM4^+ stem cells, LYZ+ Paneth cells and AB/PAS+ goblet cells in proximal jejunal crypts by IHC. […] FIG. 5G, Quantification and representative images of tdTomato+ Lgr5^+ ISC-derived lineage (cell progenies) by IHC. […] For box-and-whisker plots (FIG. 5C) data were expressed as box-and-whisker 10 to 90 percentiles, Data in bar graph (FIG. 5D) and dot plot (FIG. 5E and FIG. 5G) are expressed as mean+/−s.e.m. *p<0.05, **p<0.01, ***p<0.005, ****p<0.0001. […]
As previously reported and briefly summarized here (Mihaylova et al., 2018), small intestines were removed, washed with cold PBS, opened longitudinally and then incubated on ice with PBS plus EDTA (10 mM) for 30-45 min. […] Isolated crypts for cultures were counted and embedded in Matrigel™ (Corning 356231 growth factor reduced) at 5-10 crypts per μL and cultured in a modified form of medium as described previously (Sato et al., 2009; Yilmaz et al., 2012). […]
For orientation: A reporter such as luciferase makes a cellular process visible.

Another experiment concerns Hmgcs2-null ISCs. Description: Organoid-forming assay with Hmgcs2-null crypts/ISCs. It counts as cell-based, mouse. Conditions: for organoid-forming capacity of Hmgcs2-null ISCs: lactate at comparable concentrations, day-5-to-7 organoids. From the text: FIGS. 11A-11N. Characterization of fatty acid oxidation (FAO) and ketogenesis in intestinal crypts. Related to FIG. 4. FIG. 11A, Schematic of the mouse model for intestinal Cpt1a deletion with the timeline for tamoxifen (TAM) injections and tissue collection. FIG. 11B, Immunohistochemistry (IHC) for CPT1a (rate limiting step of FAO) and FIG. 11C, HMGCS2 levels in WT and intestinal Cpt1a loss. Images represent one of 5 biological replicates per group. FIG. 11D, βOHB levels in Cpt1a-null intestinal crypts. n=8 measurements for 4 mice per group. […] The image represents one of 8 biological replicates. FIG. 11F, IHC for HMGCS2, indicating intact HMGCS2 expression in the absence of Paneth cell. The image represents one of 8 biological replicates. For FIGS. 11C-11F, Scale bar: 50 um. FIG. 11G, Schematic of the mouse model for intestinal Hmgcs2 deletion with the timeline for TAM injections and tissue collection. FIG. 11H, Hepatic and intestinal HMGCS2 expression by IHC and FIG. 11I, serum βOHB levels in Hmgcs2-KO mice. FIG. 11J, Intestinal CPT1a expression in mice with conditional intestinal loss of Hmgcs2 by IHC, Scale bar: 100 um. The image represents one of 5 biological replicates. […] FIG. 11L, Organoid-forming assay for number of organoids per intestinal crypt, numbers of Alcian blue^+ goblet cells (black arrows) and percentage of tdTomato^+ area per organoid from WT and Hmgcs2-KO (−/−) ISCs, ±βOHB treatments: +, 10 uM and ++50 uM. Representative images: day-5-to-7 organoids. Scale bar: 50 μm. n=5 mice. […] N, Synthesis of glycerol tri((R)-3-hydroxybutyrate).
As previously reported and briefly summarized here (Mihaylova et al., 2018), small intestines were removed, washed with cold PBS, opened longitudinally and then incubated on ice with PBS plus EDTA (10 mM) for 30-45 min. Tissues were then moved to PBS. Crypts were then mechanically separated from the connective tissue by shaking or by scraping, and then filtered through a 70-μm mesh into a 50-mL conical tube to remove villus material and tissue fragments. Isolated crypts for cultures were counted and embedded in Matrigel™ (Corning 356231 growth factor reduced) at 5-10 crypts per μL and cultured in a modified form of medium as described previously (Sato et al., 2009; Yilmaz et al., 2012). Unless otherwise noted, crypt culture media consists of Advanced DMEM (Gibco) that was supplemented with EGF 40 ng mL^−1 (PeproTech), Noggin 200 ng mL^−1 (PeproTech), R-spondin 500 ng mL^−1 (R&D, Sino Bioscience or (Ootani et al., 2009)), N-acetyl-L-cysteine […] (Sigma-Aldrich), N2 1× (Life Technologies), B27 1× (Life Technologies), CHIR99021 3 μM (LC laboratories), and Y-27632 dihydrochloride monohydrate 10 μM (Sigma-Aldrich). Intestinal crypts were cultured in the above-mentioned media in 20-25 μL droplets of Matrigel™ were plated onto a flat bottom 48-well plate (Corning 3548) and allowed to solidify for 20-30 minutes in a 37° C. incubator. Three hundred microliters of crypt culture medium was then overlaid onto the Matrigel™, changed every three days, and maintained at 37° C. in fully humidified chambers containing 5% CO2. Clonogenicity (colony-forming efficiency) was calculated by plating 50-300 crypts and assessing organoid formation 3-7 days or as specified after initiation of cultures. β-Hydroxybutyrate (Sigma, 54965), Quisinostat (JNJ-26481585) 2HCl (Selleckchem, S1096), Entinostat (MS-275) (Selleckchem, S1053), Trichostatin A (Selleckchem, 51045) and γ-secretase inhibitor MK-0752 (Cayman Chemical Company, 471905-41-6) were added into cultures as indicated in the figure legends. Plasmids for Hdac1 CRISPR-deletion (sc-436647), Cre-expression (sc-418923), Cre-expression and Hmgcs2 CRISPR-deletion (VB180615-1103gue) were used for organoid transfection according to manufacturers' instructions.
If not directly used for cultures, crypts were then dissociated into single cells and sorted by flow cytometry. […]

The subject of the next experiment is class I HDACs. To be noted: reported (Shimazu et al., 2013); cited from earlier work.
A further experiment relates to Lgr5+ ISCs. Kind of experiment: Intestinal regeneration after irradiation in Hmgcs2-KO mice (Lgr5 lineage tracing). It counts as in vivo, mouse. Conditions: Hmgcs2-null mice; 1 mg/kg, 5 i.p. injections; XRT 7.5 Gy×2.
For a further experiment, the system named is intestinal crypts. Kind of experiment: HDAC inhibitor treatment of Hmgcs2-null mice, crypt histology (NICD, H3K27ac, OLFM4, LYZ, AB/PAS). It is filed as in vivo, mouse. To be noted: 1 mg/kg, 5 i.p. injections.

Description for Lgr5+ ISCs: FIG. 4F, Schematic (top) of the mouse model including the timeline of tamoxifen (TAM) injection, oral administration of nanoparticle PLGA encapsulated βOHB or non-encapsulated βOHB oligomers, irradiation (XRT, 7.5 Gy×2) and tissue collection. Quantification (bottom) and representative images (right) of tdTomato+ Lgr5^+ ISC-derived lineage (cell progenies) by IHC. Scale bar: 100 μm. n>25 crypts per measurement, n>5 measurements per mouse and n>3 mice per group. […] Data in dot plots were expressed as mean+/−s.e.m. *p<0.05, **p<0.01, ***p<0.005.

As to `CC(O)CC(=O)O` (stereo not drawn) [βOHB, β-hydroxybutyrate], in the experiment on Hes1-GFP organoids, the “GFP expression of Hes1-GFP organoids (NOTCH target gene expression)” value (from here on “GFP expression of Hes1-GFP organoids”) is listed as “increased GFP expression”. The “secretory lineage bias of Hmgcs2-null organoids” value in the experiment with Hmgcs2-null ISCs (βOHB 10 uM and 50 uM, Alcian blue+ goblet cells) was “rectified”. The “organoid-forming capacity of Hmgcs2-null ISCs” value in the experiment on Hmgcs2-null ISCs (βOHB 10 uM and 50 uM) is “rectified”. For the same molecule, the “generation of tdTomato+ clones by Hmgcs2-null ISCs” value with Hmgcs2-null ISCs (βOHB 10 uM and 50 uM, tdTomato+ area per organoid) is given as “rectified”. In addition, the “inhibition of class I HDACs” value in the experiment with class I HDACs is “endogenous inhibitor for class I HDACs”.
As to `Cn1cc(CNCC2CCN(c3ncc(C(=O)NO)cn3)CC2)c2ccccc21` [Quisinostat, Quisinostat (JNJ-26481585) 2HCl], the “GFP expression of Hes1-GFP organoids” value with Hes1-GFP organoids is “increased GFP expression”. In the experiment with Hmgcs2-null ISCs (HDAC inhibitor at a dose shown to block HDAC1 activity, alone or with βOHB), the “crypt organoid-forming capacity of Hmgcs2-null crypts” value is “rescued crypt organoid-forming capacity”. In addition, in the experiment on Lgr5+ ISCs, the “ISC function after injury” value is listed as “rescued”. In the experiment with intestinal crypts, the “decline in ISCs numbers (OLFM4+ stem cells)” value is listed as “rescued”, the “decrease in numbers of H3K27ac or NICD positive crypt cell nuclei” value is reported as “prevented these changes” and the “expansion of secretory cell types” value is “rescued”.
As to `O=C(O)CC[C@H]1CC[C@@](c2cc(F)ccc2F)(S(=O)(=O)c2ccc(Cl)cc2)CC1` [GSI, MK-0752], the “GFP expression of Hes1-GFP organoids” value with Hes1-GFP organoids was “dampened GFP expression”. In the experiment with Hmgcs2-null ISCs (GSI added to βOHB or JNJ treated cultures), the “restoration of organoid-forming capacity of Hmgcs2-null crypts by βOHB or JNJ under NOTCH blockade” value is given as “prevented the ability of either βOHB or JNJ HDAC inhibitor”.
Turning to `CC(O)C(=O)O` (centres unmarked) [lactate], the “organoid-forming capacity of Hmgcs2-null ISCs” value in the experiment on Hmgcs2-null ISCs (βOHB 10 uM and 50 uM) is on record as “not”; in the experiment on Hmgcs2-null ISCs (βOHB 10 uM and 50 uM, listed as Lactate), “did not affect”.
Consider `Nc1ccccc1NC(=O)c1ccc(CNC(=O)OCc2cccnc2)cc1` [MS-275, Entinostat (MS-275)], for which the Hmgcs2-null organoid function result is on record as “rescued” with Hmgcs2-null ISCs (10-to-100 nM) and “failed to do so” in the experiment on Hmgcs2-null ISCs (doses beyond 10-to-100 nM).
